Measured values taken from patent US20220332758A1, “PEPTIDE-BASED COMPOSITIONS AND METHODS FOR TREATING ALZHEIMER'S DISEASE” (Board of Regents, The Universityof Texas System, priority 2019, published 2022).
Entries after “also recorded” stand apart in the source; their conditions may differ.

Tests used:
[1] = test system: elav-GS-Gal4>UAS-APP, UAS-Bace1 flies; assay: Spontaneous activity in fly AD model; format: in vivo, Drosophila melanogaster; details: 1 μM in food
Protocol: Spontaneous activity and circadian rhythm. Spontaneous activity was monitored using a Trikinetic activity monitor, in which vials containing 20-25 flies were secured and activity recorded in a humidified 24° C. incubator with 12:12-hour light:dark cycles as described herein. Flies were allowed to acclimate for 8 hours prior to data collection. Activity was averaged for each twelve-hour cycle and normalized per fly.

[2] = biological target: T1, proteasome activity in W^1118 flies (Drosophila melanogaster, UniProt P40301+Q9XZJ4); assay: Proteasome activity in flies fed the compounds; format: in vivo; details: fed for 10 days
T1 construct: from tissue
T1 sequence (Q9XZJ4 whole entry): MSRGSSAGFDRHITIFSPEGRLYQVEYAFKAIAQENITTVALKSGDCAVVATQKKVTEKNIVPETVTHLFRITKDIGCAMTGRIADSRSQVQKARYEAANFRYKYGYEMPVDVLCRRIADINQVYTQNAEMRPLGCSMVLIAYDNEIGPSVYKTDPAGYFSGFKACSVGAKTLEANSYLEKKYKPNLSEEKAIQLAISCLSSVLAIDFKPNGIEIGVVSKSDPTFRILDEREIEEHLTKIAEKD
T1 sequence (P40301 whole entry): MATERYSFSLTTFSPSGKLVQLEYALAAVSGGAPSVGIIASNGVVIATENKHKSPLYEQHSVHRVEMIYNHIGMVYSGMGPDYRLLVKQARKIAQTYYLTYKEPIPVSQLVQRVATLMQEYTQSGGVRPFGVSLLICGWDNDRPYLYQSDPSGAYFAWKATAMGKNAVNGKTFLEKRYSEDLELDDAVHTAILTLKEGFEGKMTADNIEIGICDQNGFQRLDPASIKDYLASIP
Protocol: Fly Lines and Strain Maintenance. UAS-ProsBeta5 (Staudt, N. et al. PLoS Genet 1, e55, doi:10.1371/journal.pgen.0010055 (2005)) and Elav-GS-GAL4; UAS-hAPP; UAS-hBACE1 (56756) stocks were obtained from the Bloomington Drosophila Stock Center (NIH P40OD018537). The lines were maintained on agar-cornmeal-dextrose-yeast growth media (Ren, C., Finkel, S. E. & Tower, J. Exp Gerontol 44, 228-235, doi:10.1016/j.exger.2008.10.002 (2009)) in a humidified 24° C. incubator with 12:12-hour light:dark cycle. The crosses were set up with female virgins of the respective GAL4 driver line and male UAS-ProsBeta5 or W^1118 flies. Progeny were collected within 48 hours of eclosion and allowed to mate on 10% sugar/yeast (SY10) media (Skorupa, D. A., et al. Aging Cell 7, 478-490, doi:10.1111/j.1474-9726.2008.00400.x (2008)) for another 48 hours. After this period, females were separated and sorted into sets of 25 flies per vial containing SY10 media supplemented either with 400 μM mifepristone (RU486) or ethanol vehicle, mixed directly into the food. 8 μM Blue Dye #1 was added to food containing RU486 for the purpose of identification. Carbon dioxide was used to briefly anesthetize flies for sorting. Flies were moved to vials of fresh media every two to three days.
Plate-based proteasome activity assay. […]

[3] = biological target: T2, latent human 20S proteasome (Homo sapiens, UniProt P25787+P60900); assay: Chymotrypsin-like (ChT-L) activity of purified latent human 20S proteasome, Suc-LLVY-AMC substrate; format: biochemical; details: for activation of ChT-L activity of 20S proteasome (in words): in vitro, latent human 20S
T2 construct: purified from erythrocytes; purchased Boston Biochem, Inc. or Enzo Life Sciences, Inc; host or cells: human erythrocytes
Protocol: Determination of Proteasome Activity. Human housekeeping core (20S) proteasome purified from erythrocytes was purchased from Boston Biochem, Inc. (Cambridge, Mass.) or from Enzo Life Sciences, Inc. (Farmingdale, N.Y.). […] The stock proteasome was diluted to 0.2 mg/mL working solution in “dilution buffer” (50 mM Tris/HCl, pH 8, 20% glycerol). The following model peptide substrates, releasing fluorescent 7-amino-4-methylcoumarin (AMC) reporter group after cleavage, were used: succinyl-LeuLeuValTyr-AMC (SEQ ID NO: 14) (for the ChT-L peptidase; SucLLVY-AMC; Bachem Bioscience Inc., Philadelphia, Pa.), butoxycarbonyl-LeuArgArg-AMC (T-L; Bachem Bioscience Inc., Philadelphia, Pa.) and carbobenzoxy-LeuLeuGlu-AMC (PGPH; Enzo Life Sciences Inc., Farmingdale, N.Y.). The substrates were used at concentration of 50 μM (ChT-L) or 100 μM (T-L, PGPH). Free AMC (Sigma-Aldrich, St. Louis, Mo.) was used as the standard. […] The TAT peptides, Rpt peptides (except Rpt6) and the peptide substrates were dissolved in anhydrous dimethylsulfoxide (DMSO; Sigma-Aldrich, St. Louis, Mo.) and such stock solutions were stored at −20° C. The total concentration of DMSO in final reaction mixtures never exceeded 3% (vol/vol). The Trp (tryptophan)-containing Rpt6 peptide was dissolved in ultrapure water and stored at −20° C., protected from light. The reaction was carried out in 96-well plates, in 100 μL of reaction mixture that consisted of 45 mM Tris/HCl, pH 8, 100 mM KCl, 1 mM EDTA (reaction buffer) and a fluorogenic peptide substrate, to which 200 ng (nearly […]) of proteasome were added. […] The proteasome was preincubated with a substrate for 10 min at room temperature, then 1 μL of DMSO or a desired concentration of a TAT peptide in 1 μL of DMSO were added. After mixing, the plate was transferred to a Fluoroskan Ascent plate reader (Thermo Fisher Scientific Inc., Waltham, Mass.) for 1 h (37° C.), with fluorescence readouts once per minute. To test the competition with Rpt derived peptides, the Rpt peptide (1 μM) was added before the TAT peptide to the reaction mixture. The reaction rates were calculated from a linear segment of kinetic curves constructed from measurements in 1-min intervals. Reaction rates were calculated using a linear fit performed with the Slope Analyser and Enzyme Kinetics applications launched within Origin Pro 2019 (OriginLab Corporation, Northampton, Mass.). […] The data are presented as mean±SD from at least three independent experiments.
Statistical Analysis. Experiments were performed at least in three independent replicates. The results are presented as a mean±SD. A two-tailed t-test was applied to compare the means. The comparisons were allowing for unequal variances with a Welch correction. Abundance of proteasome conformers was compared with the chi squared test and two-sample proportion test. A significance level was set at 0.05. Statistical analysis was performed using statistical procedures offered by OriginPro 2019 (OriginLabs, Northampton, Mass.). Reaction rates were calculated from a smoothed linear segment of kinetic traces using OriginPro 2019. Response curves (activity vs. compound concentration) were fitted with a nonlinear fitting application of OriginPro 2019. The AC50 and maximum activation fold was calculated based on the equations implemented to fit the response curves.

activation of ChT-L activity of 20S proteasome (in words) ([3]; listed as Tat1-Den)	activation of ChT-L activity of 20S proteasome (in words) ([3]; listed as Tat-Den)	SMILES	spontaneous activity [1]	proteasome activity in flies [2]	activation of ChT-L activity of 20S proteasome (in words) [3]	AC50 ([3]; 20S proteasome AC50, Table 1, ChT-L activity, Suc-LLVY-MCA, purified human housekeeping 20S)	AC50 ([3]; AC50 [nM] ± SE, Table 3, purified 20S proteasome in Tris/HCl buffer pH 8, ChT-L model substrate)
one of the best proteasome activators	strongly enhance	NCCCCC(N)C(=O)NC(CCCCN)C(=O)NC(CCCCN)C(=O)Nc1cc(NC(=O)C(CCCCN)NC(=O)C(CCCCN)NC(=O)C(N)CCCCN)cc(C(=O)NC(CCCCN)C(=O)NC(CCCCN)C(=O)NC(CCCCN)C(=O)O)c1 (stereo not shown) [(8)]	increased spontaneous activity	enhance proteasome activity when fed to flies	one of the highest activation folds for the 20S core and one of the lowest AC50; also recorded: highest fold of activation potential and a low AC50	–	–
–	–	N=C(N)NCCCC(NC(=O)CN)C(=O)NC(CCCCN)C(=O)NC(CCCCN)C(=O)NC(CCCNC(=N)N)C(=O)NC(CCCNC(=N)N)C(=O)NC(CCC(N)=O)C(=O)N1Cc2ccccc2C[C@H]1C(=O)N1C(C(=O)NC(CCCNC(N)N)C(=O)N2CCCC2C(=O)NC(CO)C(=O)O)CC2CCCCC21 (stereo partly shown) [(5), GRKKRRQ-TOD-RPS]	increased spontaneous activity	enhance proteasome activity when fed to flies	strongly enhance	221 nM	220 ± 89 nM
